The text below walks through data of patent US20180078656A1, “CRYPTOPHYCIN-BASED ANTIBODY-DRUG CONJUGATES WITH NOVEL SELF-IMMOLATIVE LINKERS” (priority 2015, published 2018).

The test system of one data set is H69AR cells. The experiment in a line: Cell viability assay (CellTiter-Glo), drug-resistant H69AR. It counts as cell-based. Conditions: for IC50: 120 h incubation. The method, then: (§1) H69 cells and the drug-resistant counterpart H69AR were obtained from the American Type Culture Collection and were grown according to standard protocols. The effects of cryptophycin and cryptophycin conjugates on the viability of wild type and drug resistant tumor cell lines were assessed using the CellTiter-Glo® Luminescent Cell Viability Assay (Promega), according to the manufacturer protocol. Cells were plated in black-walled 96-well plates (5000 cells per well) and allowed to adhere overnight at 37° C. in a humidified atmosphere of 5% CO2. Medium was then removed and replaced by fresh culture medium containing increasing concentrations of cryptophycin analogs or doxorubicin as a control. Cells were incubated with compounds for 120 h at 37° C. in 5% CO2. Eight triplicate 1:3 serial dilution datapoints were recorded for each experimental condition (from […] to 10 nM for CRY55-Gly, CRY55-Gly-LINKER73 and CRY55-Gly-LINKER76, from 1.2 nM to 2700 nM for doxorubicin). At the end of the incubation, luminescence was measured using a Perkin Elmer Wallac 1450 MicroBeta TriLux detector. Compound cytotoxicity was evaluated in comparison to cells treated with 0.1% DMSO.
(Cellular ATP, detected with luciferase, serves as a proxy for viable cell number.)

Another data set relates to SK-BR3 cells. The data set can be described thus: Cell viability assay (CellTiter-Glo), SK-BR3. It is filed as cell-based. Conditions: read-out: SK-BR3 CC50. The method, then: (§2) Tumor cell lines (breast carcinoma cell lines SKBR-3 and MCF7 and colon carcinoma cell line HCT116) were obtained from American Type Culture Collection and were grown according to standard protocols. […] The effects of the cryptophycin-55-glycinate ADC conjugate on tumor cell viability were assessed using the CellTiter-Glo® Luminescent Cell Viability Assay (Promega), according to the manufacturer protocol. […] Cells were plated in black-walled 96-well plates (5000 cells per well for SKBR-3 and MCF7; 2000 cells per well for HCT116) and allowed to adhere overnight at 37° C. in a humidified atmosphere of 5% CO2. […] Five to eight triplicate datapoints were recorded for each experimental condition. At the end of the incubation luminescence was measured using a Perkin Elmer Wallac 1450 MicroBeta TriLux detector. Compound cytotoxicity was evaluated in comparison to cells treated with PBS (antibodies) or 0.1% DMSO (compounds). CC50 values were calculated by fitting viability data with a four-parameter logistic equation using a Kaleidagraph software.

The next data set concerns H69 cells. The experiment in a line: Cell viability assay (CellTiter-Glo), H69 wild type. It is filed as cell-based. To be noted: wild type H69, 120 h incubation. The method, then:
as §1

A further data set relates to HCT116 cells. The data set can be described thus: Cell viability assay (CellTiter-Glo), HCT116. It counts as cell-based. Conditions: read-out: HCT116 CC50. How it is done:
as §2

Data set [1] relates to MCF7 cells. The experiment in a line: Cell viability assay (CellTiter-Glo), MCF7, 96 h. It is filed as cell-based, human. To be noted: read-out: MCF7 CC50. The method, then: as §2
In data set [2] the test system is MCF7 cells. The data set can be described thus: Cell viability assay (CellTiter-Glo), MCF7, 120 h. It counts as cell-based, human. To be noted: for IC50: read-out: IC50, MCF7. How it is done:
(§3) Tumor cell lines (the rat pancreatic tumor cell line AR42J and the human breast carcinoma cell line MCF7) were obtained from the American Type Culture Collection and were grown according to standard protocols.
(§4) The effects of the cryptophycin-55-glycinate-octreotide conjugate of Example 5 on the viability of the tumor cell lines AR42J (STTR2^high) and MCF7 (SSTR2^low) were assessed using the CellTiter-Glo® Luminescent Cell Viability Assay (Promega), according to the manufacturer protocol. Cells were plated in black-walled 96-well plates (5000 cells per well) and allowed to adhere overnight at 37° C. in a humidified atmosphere of 5% CO2. Medium was then removed and replaced by fresh culture medium containing increasing concentrations of cryptophycin-55-glycinate-octreotide conjugate (CRY55-Gly-Oct), unconjugated octreotide, or free cryptophycin-55-glycinate (CRY55-Gly), and the cells were incubated for 120 h at 37° C. in 5% CO2. Nine triplicate 1:3 serial dilution datapoints were recorded for each experimental condition (from 0.0015 nM to 10 nM for CRY55-Gly and CRY55-Gly-Oct, from 0.0015 uM to 10 uM for the unconjugated octreotide). At the end of the incubation luminescence was measured using a Perkin Elmer Wallac 1450 MicroBeta TriLux detector. Compound cytotoxicity was evaluated in comparison to cells treated with 0.1% DMSO. IC50 values were calculated by fitting viability data with a four-parameter logistic equation using a Kaleidagraph software. Residual cell viability plots obtained upon treatment of the AR42J and MCF7 cells with the different compounds are shown in FIG. 3 and FIG. 4, respectively.

The next data set relates to AR42J cells. The experiment in a line: Cell viability assay (CellTiter-Glo), AR42J, 120 h. It is filed as cell-based, rat. To be noted: 120 h incubation; for IC50: SSTR2-high AR42J. How it is done: as §3, §4

Counter-ions that a name gives are not always drawn. Like-named read-outs stand apart in the source and are kept apart here.

With `COc1ccc(C[C@H]2NC(=O)/C=C/C[C@@H]([C@H](C)[C@@H](O)[C@@H](Cl)c3ccccc3)OC(=O)[C@H](CC(C)C)OC(=O)C(C)(C)CNC2=O)cc1Cl` [Cry-55, Cryptophycin-55], the IC50 was found to be 0.23 nM in the data set on H69AR cells (Homo sapiens) and 0.1 nM in the data set on H69 cells (Homo sapiens, NCI-H69). The CC50 in the data set on SK-BR3 cells (Homo sapiens, SK-BR-3, 96 h) worked out at 0.076 nM; in the data set with HCT116 cells (Homo sapiens, HCT-116, 96 h), 0.1 nM; in the data set with MCF7 cells [1] (Homo sapiens, MCF7, 96 h) it was 0.18 nM.
`COc1ccc(C[C@H]2NC(=O)/C=C/C[C@@H]([C@H](C)[C@@H](OC(=O)CN)[C@@H](Cl)c3ccccc3)OC(=O)[C@H](CC(C)C)OC(=O)C(C)(C)CNC2=O)cc1Cl` [Cry-55-Gly, Cryptophycin-55-glycinate trifluoroacetate]: the IC50 in the data set on MCF7 cells [2] (Homo sapiens, MCF7, 120 h) is 0.2 nM; in the data set on H69AR cells (Homo sapiens) it was 0.15 nM; with H69 cells (Homo sapiens, NCI-H69), 0.09 nM; in the data set with AR42J cells (Rattus norvegicus, AR-42J), 0.8 nM. Moreover, the half-maximal cytotoxic concentration (CC50) in the data set with SK-BR3 cells (Homo sapiens, SK-BR-3, 96 h) turned out to be 0.09 nM; with HCT116 cells (Homo sapiens, HCT-116, 96 h) it was 0.19 nM; with MCF7 cells [1] (Homo sapiens, MCF7, 96 h), 0.25 nM.
As for `COc1ccc(C[C@H]2NC(=O)/C=C/C[C@@H]([C@H](C)[C@@H](OC(=O)CNC(=O)[C@@H]3CCCN3C(=O)CNC(=O)[C@H](CCCNC(N)=O)NC(=O)[C@@H](NC(=O)CCOCCOCCOCCOCCn3cc(CCC(=O)N[C@H](Cc4ccccc4)C(=O)N[C@H]4CSSCC(C(=O)N[C@H](CO)[C@@H](C)O)NC(=O)C([C@@H](C)O)NC(=O)[C@H](CCCCN)NC(=O)[C@@H](Cc5c[nH]c6ccccc56)NC(=O)[C@H](Cc5ccccc5)NC4=O)nn3)C(C)C)[C@@H](Cl)c3ccccc3)OC(=O)[C@H](CC(C)C)OC(=O)C(C)(C)CNC2=O)cc1Cl` (some centres unmarked) [Oct-Cry55-Gly conjugate], the “fold difference of IC50 on MCF7, conjugate versus cryptophycin-55-glycinate” value with MCF7 cells [2] (MCF7, 120 h incubation) is given as 90 fold. The IC50 in the data set on MCF7 cells [2] (SSTR2-low MCF7, 120 h incubation) was found to be 27 nM; in the data set on AR42J cells, 0.9 nM.
Regarding `C[C@@H](O)[C@@H]1NC(=O)[C@H](CCCCN)NC(=O)[C@@H](Cc2c[nH]c3ccccc23)NC(=O)[C@H](Cc2ccccc2)NC(=O)[C@@H](NC(=O)[C@H](N)Cc2ccccc2)CSSC[C@@H](C(=O)N[C@H](CO)[C@@H](C)O)NC1=O` [Octreotide], in the data set with MCF7 cells [2] (SSTR2-low MCF7, 120 h, tested […] to 10 uM), the “IC50, MCF7 (in words)” value was “completely ineffective”. In addition, the “inhibition of AR42J viability” value in the data set on AR42J cells (up to 10 uM) was 30% inh. up to 10 uM.
`COc1cccc2c1C(=O)c1c(O)c3c(c(O)c1C2=O)C[C@@](O)(C(=O)CO)C[C@@H]3O[C@H]1C[C@H](N)[C@H](O)[C@H](C)O1` [doxorubicin]: the “effect on H69AR cell viability (in words)” value with H69AR cells (120 h, 1.2 nM to 2700 nM) is given as “only minor effects”.
In the case of “Azide-TEG-Val-Cit-Gly-Pro-Gly-cryptophycin-55 [Example 5]”, the IC50 in the data set on H69AR cells amounted to 3.6 nM; in the data set on H69 cells, 1.7 nM.
“Maleimide-PEG-Val-Cit-Pro-Gly-Cryptophycin-55-glycinate [Cry-55-Linker]”: the CC50 was 2.6 nM in the data set on SK-BR3 cells (HER2-positive SK-BR3, 96 h incubation); 4.4 nM in the data set on HCT116 cells (Her2-low HCT116, 96 h incubation); 6.1 nM in the data set on MCF7 cells [1] (Her2-low MCF7, 96 h incubation).

The IC50 is the concentration at which inhibition is half-maximal. A word on the CC50: it is the concentration giving 50% cytotoxicity.
